# Test results from ChEMBL document CHEMBL6109122 (J Med Chem, 2025).
# Active and inactive are the calls of the source. The rule behind the calls is not given here.
# How the values were obtained:
# Mus musculus [1] = experiment: Anti-inflammatory activity in imiquimod-induced female BALB/c mouse psoriasis model assessed as reduction in IL-17 expression in skin at 15 mg/kg, ip administered daily topically for 6 days by ELISA method; format: functional, organism-based; conditions: time 6.0 day
# [2] = molecular target: T1, Protein cereblon/Non-receptor tyrosine-protein kinase TYK2 (Homo sapiens, UniProt P29597+Q96SW2); experiment: PROTAC activity at CRBN/TYK2 in human HaCaT cells assessed as induction of degradation of TYK2 measured after 10 hrs by Western blot analysis; format: cell-based; conditions: dose 1-100 nM
# [3] = MRT (0 to infinity) in male ICR mouse at 5 mg/kg, ip measured up to 24 hrs by LC-MS/MS analysis; format: ADME, organism-based; conditions: in vivo
# Jurkat [4] = experiment: Downregulation of TYK2 protein level in human Jurkat cells at 1 to 100 nM measured after 10 hrs by Western blot analysis; format: functional, cell-based; conditions: dose 1-100 nM
# Mus musculus [5] = experiment: Anti-inflammatory activity in imiquimod-induced female BALB/c mouse psoriasis model assessed as reduction in hyperkeratosis at 5 mg/kg, ip administered daily topically for 6 days by H and E staining based analysis; format: functional, organism-based; conditions: time 6.0 day
# Mus musculus [6] = organism: Mus musculus; experiment: Anti-inflammatory activity in imiquimod-induced female BALB/c mouse psoriasis model assessed as reduction in IL-17 expression in serum by ELISA method; format: functional, organism-based
# [7] = molecular target: T1, Protein cereblon/Non-receptor tyrosine-protein kinase TYK2; experiment: PROTAC activity at CRBN/TYK2 in human Jurkat cells assessed as induction of degradation of TYK2 at 10 nM measured after 4 hrs by Western blot analysis; format: cell-based
# Jurkat [8] = experiment: Downregulation of Aiolos level in human Jurkat cells at 30 nM measured after 4 hrs by DIA-Based Proteomic analysis; format: functional, cell-based
# Mus musculus [9] = experiment: Anti-inflammatory activity in imiquimod-induced female BALB/c mouse psoriasis model assessed as reduction in concomitant splenomegaly at 5 mg/kg, ip administered daily topically for 6 days; format: functional, organism-based; conditions: time 6.0 day
# [10] = molecular target: T1, Protein cereblon/Non-receptor tyrosine-protein kinase TYK2; experiment: PROTAC activity at CRBN/TYK2 in human Jurkat cells assessed as induction of degradation of TYK2 at 10 nM measured after 10 to 36 hrs by Western blot analysis relative to control; format: cell-based; conditions: time 10-36 hrs
# [11] = molecular target: T1, Protein cereblon/Non-receptor tyrosine-protein kinase TYK2; experiment: PROTAC activity at CRBN/TYK2 in human Jurkat cells assessed as induction of degradation of TYK2 at 10 nM measured after 10 hrs by Western blot analysis relative to control; format: cell-based
# [12] = molecular target: Tyrosine-protein kinase JAK2 (Homo sapiens, UniProt O60674); experiment: Binding affinity to JAK2 (unknown origin) by ADP-glo kinase assay
# [13] = Inhibition of TYK2 dependent STAT3 phosphorylation in IL-6 stimulated human PBMC cells preincubated for 60 mins followed by IL-6 stimulation and measured after 60 mins by FACS assay; format: cell-based
# Mus musculus [14] = experiment: Anti-inflammatory activity in imiquimod-induced female BALB/c mouse psoriasis model assessed as effect on body weight at 5 mg/kg, ip administered daily topically for 6 days; format: functional, organism-based; conditions: time 6.0 day
# Jurkat [15] = experiment: Downregulation of Ikaros level in human Jurkat cells at 30 nM measured after 4 hrs by DIA-Based Proteomic analysis; format: functional, cell-based
# [16] = AUC (0 to infinity) in male ICR mouse at 5 mg/kg, ip measured up to 24 hrs by LC-MS/MS analysis; format: ADME, organism-based; conditions: in vivo
# [17] = molecular target: T2, Tyrosine-protein kinase JAK3 (Homo sapiens, UniProt P52333); experiment: Binding affinity to JAK3 (unknown origin) by ADP-glo kinase assay
# T2 sequence (P52333 whole entry): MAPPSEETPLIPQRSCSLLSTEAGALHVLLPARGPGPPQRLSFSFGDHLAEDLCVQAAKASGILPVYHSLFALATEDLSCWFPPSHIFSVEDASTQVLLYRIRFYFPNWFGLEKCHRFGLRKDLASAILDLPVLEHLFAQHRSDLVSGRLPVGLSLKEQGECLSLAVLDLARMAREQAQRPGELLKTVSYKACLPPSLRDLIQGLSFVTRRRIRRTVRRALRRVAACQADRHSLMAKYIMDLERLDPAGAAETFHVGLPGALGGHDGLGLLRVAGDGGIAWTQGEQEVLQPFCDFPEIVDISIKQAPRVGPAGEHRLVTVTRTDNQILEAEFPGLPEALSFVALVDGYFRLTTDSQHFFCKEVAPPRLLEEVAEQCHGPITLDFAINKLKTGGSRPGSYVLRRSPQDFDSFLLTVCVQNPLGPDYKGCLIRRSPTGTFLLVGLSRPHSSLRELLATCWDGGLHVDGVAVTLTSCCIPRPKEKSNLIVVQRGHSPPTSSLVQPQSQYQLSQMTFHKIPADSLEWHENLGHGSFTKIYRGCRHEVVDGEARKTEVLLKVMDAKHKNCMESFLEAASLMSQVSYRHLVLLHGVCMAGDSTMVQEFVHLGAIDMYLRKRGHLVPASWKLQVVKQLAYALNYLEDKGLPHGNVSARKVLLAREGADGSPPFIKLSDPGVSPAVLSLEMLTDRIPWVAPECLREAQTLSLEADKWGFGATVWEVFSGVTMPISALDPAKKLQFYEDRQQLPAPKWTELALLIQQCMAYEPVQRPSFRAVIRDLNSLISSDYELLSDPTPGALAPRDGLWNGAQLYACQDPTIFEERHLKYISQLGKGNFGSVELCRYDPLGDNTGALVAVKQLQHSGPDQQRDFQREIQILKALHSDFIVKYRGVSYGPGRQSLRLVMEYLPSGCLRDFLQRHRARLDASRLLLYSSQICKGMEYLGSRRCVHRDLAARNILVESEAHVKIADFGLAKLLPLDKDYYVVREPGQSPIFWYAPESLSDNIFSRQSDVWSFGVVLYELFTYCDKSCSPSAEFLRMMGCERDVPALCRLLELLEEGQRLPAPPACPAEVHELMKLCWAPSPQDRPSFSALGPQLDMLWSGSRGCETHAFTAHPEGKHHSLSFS
# [18] = molecular target: T1, Protein cereblon/Non-receptor tyrosine-protein kinase TYK2; experiment: PROTAC activity at CRBN/TYK2 in human Jurkat cells assessed as induction of degradation of TYK2 at 1 nM measured after 10 hrs by Western blot analysis relative to control; format: cell-based
# [19] = molecular target: Tyrosine-protein kinase JAK1 (Homo sapiens, UniProt P23458); experiment: Binding affinity to JAK1 (unknown origin) by ADP-glo kinase assay
# [20] = molecular target: T1, Protein cereblon/Non-receptor tyrosine-protein kinase TYK2; experiment: PROTAC activity at CRBN/TYK2 in human Jurkat cells assessed as induction of degradation of TYK2 at 10 nM preincubated with deucravacitinib for 2 hrs followed by compound addition and measured after 10 hrs by Western blot analysis; format: cell-based
# Mus musculus [21] = organism: Mus musculus; experiment: Anti-inflammatory activity in imiquimod-induced female BALB/c mouse psoriasis model assessed as reduction in TYK2 protein expression by Immunohistochemical analysis; format: functional, organism-based
# [22] = Metabolic stability in mouse liver microsomes assessed as intrinsic clearance measured up to 120 mins by LC-MS/MS analysis; format: ADME, Microsome; conditions: read-out: CLH
# [23] = molecular target: T1, Protein cereblon/Non-receptor tyrosine-protein kinase TYK2; experiment: PROTAC activity at CRBN/TYK2 in human Jurkat cells assessed as induction of degradation of TYK2 at 10 nM preincubated with bortezomib for 2 hrs followed by compound addition and measured after 10 hrs by Western blot analysis; format: cell-based
# T1 sequence (P29597 whole entry, looked up): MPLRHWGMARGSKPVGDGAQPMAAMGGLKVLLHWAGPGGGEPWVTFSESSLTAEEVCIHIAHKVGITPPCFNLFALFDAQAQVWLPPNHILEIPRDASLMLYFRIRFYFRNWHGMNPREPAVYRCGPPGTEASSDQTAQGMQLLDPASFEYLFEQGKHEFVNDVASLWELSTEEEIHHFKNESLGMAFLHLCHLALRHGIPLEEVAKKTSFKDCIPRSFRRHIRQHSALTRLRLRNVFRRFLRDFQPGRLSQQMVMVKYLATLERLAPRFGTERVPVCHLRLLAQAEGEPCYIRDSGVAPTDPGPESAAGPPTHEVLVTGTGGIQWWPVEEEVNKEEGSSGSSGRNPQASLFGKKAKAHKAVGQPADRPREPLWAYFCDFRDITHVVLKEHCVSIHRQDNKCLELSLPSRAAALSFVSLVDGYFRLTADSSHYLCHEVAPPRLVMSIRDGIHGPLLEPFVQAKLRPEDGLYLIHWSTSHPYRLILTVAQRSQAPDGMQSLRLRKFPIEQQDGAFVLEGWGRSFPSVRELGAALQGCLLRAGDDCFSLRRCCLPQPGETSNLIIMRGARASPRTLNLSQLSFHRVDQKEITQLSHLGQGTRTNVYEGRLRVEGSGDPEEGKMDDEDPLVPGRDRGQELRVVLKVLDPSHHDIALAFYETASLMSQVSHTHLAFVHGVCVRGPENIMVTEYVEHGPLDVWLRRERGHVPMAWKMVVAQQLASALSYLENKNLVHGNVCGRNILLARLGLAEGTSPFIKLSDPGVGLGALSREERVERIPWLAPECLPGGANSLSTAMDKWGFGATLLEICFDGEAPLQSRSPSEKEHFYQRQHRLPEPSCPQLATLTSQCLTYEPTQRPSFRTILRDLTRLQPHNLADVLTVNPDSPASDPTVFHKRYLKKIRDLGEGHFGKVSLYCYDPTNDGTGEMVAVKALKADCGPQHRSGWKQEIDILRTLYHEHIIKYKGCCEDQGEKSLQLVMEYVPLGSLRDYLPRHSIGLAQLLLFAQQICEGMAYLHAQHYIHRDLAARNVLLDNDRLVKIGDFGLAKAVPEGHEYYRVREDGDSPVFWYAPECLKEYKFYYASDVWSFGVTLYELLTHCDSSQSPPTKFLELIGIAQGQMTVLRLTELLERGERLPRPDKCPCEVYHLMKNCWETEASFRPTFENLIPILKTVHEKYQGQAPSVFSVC
# T1 sequence (Q96SW2 whole entry, looked up): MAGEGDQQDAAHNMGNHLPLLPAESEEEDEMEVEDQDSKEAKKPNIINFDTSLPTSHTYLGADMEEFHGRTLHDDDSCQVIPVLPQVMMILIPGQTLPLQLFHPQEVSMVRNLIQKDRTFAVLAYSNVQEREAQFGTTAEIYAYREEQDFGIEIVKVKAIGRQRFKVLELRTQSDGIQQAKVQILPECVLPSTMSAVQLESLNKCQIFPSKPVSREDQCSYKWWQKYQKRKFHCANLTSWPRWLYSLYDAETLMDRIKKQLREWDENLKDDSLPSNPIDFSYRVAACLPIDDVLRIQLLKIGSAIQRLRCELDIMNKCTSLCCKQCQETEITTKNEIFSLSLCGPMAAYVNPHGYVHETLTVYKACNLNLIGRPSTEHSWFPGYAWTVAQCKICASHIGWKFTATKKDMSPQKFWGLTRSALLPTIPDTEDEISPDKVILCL
# Tyrosine-protein kinase JAK2, sequence (O60674 whole entry): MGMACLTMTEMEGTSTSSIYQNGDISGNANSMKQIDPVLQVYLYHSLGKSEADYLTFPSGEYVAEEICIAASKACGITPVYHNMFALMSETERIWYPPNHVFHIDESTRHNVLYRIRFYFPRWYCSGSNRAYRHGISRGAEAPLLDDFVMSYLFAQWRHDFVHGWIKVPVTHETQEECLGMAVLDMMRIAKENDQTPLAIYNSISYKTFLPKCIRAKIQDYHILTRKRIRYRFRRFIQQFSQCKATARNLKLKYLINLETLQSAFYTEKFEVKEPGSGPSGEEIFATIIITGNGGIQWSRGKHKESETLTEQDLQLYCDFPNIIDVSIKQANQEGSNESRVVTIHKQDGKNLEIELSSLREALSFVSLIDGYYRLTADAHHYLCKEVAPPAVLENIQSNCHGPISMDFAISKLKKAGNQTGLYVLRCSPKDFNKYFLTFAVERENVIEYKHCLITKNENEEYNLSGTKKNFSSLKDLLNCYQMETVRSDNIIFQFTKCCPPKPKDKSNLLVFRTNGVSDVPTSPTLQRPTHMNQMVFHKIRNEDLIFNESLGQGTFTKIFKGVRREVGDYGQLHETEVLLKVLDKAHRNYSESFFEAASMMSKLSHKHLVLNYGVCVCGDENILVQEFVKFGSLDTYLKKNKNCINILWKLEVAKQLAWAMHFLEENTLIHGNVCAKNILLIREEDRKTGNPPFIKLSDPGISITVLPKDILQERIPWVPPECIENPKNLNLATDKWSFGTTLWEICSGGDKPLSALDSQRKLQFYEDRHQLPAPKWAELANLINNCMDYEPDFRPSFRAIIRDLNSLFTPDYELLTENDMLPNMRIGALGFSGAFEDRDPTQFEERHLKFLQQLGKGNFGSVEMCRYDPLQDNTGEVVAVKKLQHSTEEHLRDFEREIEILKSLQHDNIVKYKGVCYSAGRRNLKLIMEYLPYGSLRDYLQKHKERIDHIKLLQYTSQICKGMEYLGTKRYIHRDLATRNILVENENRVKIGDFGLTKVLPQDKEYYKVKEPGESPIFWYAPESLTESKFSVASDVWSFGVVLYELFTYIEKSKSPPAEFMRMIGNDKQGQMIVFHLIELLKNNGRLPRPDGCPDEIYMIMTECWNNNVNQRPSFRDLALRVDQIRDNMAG
# Tyrosine-protein kinase JAK1, sequence (P23458 whole entry): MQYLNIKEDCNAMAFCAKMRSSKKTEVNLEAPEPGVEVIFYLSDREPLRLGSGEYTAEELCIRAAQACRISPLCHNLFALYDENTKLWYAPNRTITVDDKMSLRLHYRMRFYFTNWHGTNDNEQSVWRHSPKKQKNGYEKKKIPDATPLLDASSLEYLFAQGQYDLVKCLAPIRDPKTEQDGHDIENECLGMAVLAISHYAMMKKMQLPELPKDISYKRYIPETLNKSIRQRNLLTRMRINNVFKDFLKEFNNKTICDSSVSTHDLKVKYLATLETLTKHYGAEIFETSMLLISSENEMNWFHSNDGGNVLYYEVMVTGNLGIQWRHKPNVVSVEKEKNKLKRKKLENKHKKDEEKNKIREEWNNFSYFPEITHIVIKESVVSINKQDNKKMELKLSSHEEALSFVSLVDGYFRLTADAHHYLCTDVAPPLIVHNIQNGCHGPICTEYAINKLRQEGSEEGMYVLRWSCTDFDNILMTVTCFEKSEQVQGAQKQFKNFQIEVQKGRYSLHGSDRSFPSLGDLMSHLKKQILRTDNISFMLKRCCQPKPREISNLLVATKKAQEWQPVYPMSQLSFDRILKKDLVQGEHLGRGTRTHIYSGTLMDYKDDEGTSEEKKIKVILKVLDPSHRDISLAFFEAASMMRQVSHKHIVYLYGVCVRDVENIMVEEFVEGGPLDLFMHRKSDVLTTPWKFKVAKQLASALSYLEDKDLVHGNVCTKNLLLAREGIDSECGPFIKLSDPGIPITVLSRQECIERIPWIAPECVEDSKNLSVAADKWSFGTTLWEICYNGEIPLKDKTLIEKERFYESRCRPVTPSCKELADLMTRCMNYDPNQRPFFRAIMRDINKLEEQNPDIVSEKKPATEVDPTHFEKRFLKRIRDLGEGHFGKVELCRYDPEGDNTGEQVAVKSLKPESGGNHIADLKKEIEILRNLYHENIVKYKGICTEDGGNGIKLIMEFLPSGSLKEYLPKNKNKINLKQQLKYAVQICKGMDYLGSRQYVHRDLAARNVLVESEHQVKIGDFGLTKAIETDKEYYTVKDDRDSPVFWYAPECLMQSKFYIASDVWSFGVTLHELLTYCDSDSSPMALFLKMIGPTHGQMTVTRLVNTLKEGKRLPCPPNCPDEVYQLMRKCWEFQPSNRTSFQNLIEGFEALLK
structure (smiles),measurement,setting,value
CNC(=O)c1cnc(Nc2ccc(C(=O)NC3CCC(Nc4ccc5c(c4)C(=O)N(C4CCC(=O)NC4=O)C5=O)CC3)cn2)cc1Nc1cccc(-c2ncc(F)cn2)c1OC (stereo not drawn),Activity,Mus musculus [1],Active
same,Activity,[2],Dose-dependent-effect
same,MRT inf,[3],4.2 h
same,Activity,Jurkat [4],Active
same,Activity,Mus musculus [5],Active
same,Activity,Mus musculus [6],Active
same,Activity,[7],Active
same,Activity,Jurkat [8],inactive
same,Activity,Mus musculus [9],Active
same,Activity,[10],90%
same,Activity,[11],96%
same,IC50,[12],> 10 µM
same,IC50,[13],> 10 µM
same,Activity,Mus musculus [14],Active
same,Activity,Jurkat [15],inactive
same,AUC(0-inf),[16],4780 ng·h/mL
same,IC50,[17],> 10 µM
same,Activity,[18],63%
same,IC50,[19],> 10 µM
same,Activity,[20],inactive
same,Activity,Mus musculus [21],Active
same,CLint scaled,[22],54 mL/min/kg
same,Activity,[23],inactive
